“Also recorded” adds a separate entry of the source.
Experiments:
zebrafish [1] = test: Rheotaxis behavior with next generation video imaging and semi-automated image analysis; format: in vivo, Danio rerio
Description: Sulforaphane, a naturally occurring molecule within the isothiocyanate group of organosulfur compounds, is present within cruciferous vegetables such as broccoli. Low doses of SF induce production of antioxidant enzymes such as glutathione transferases, UDP-glucuronyltransferase, NAD(P)H:quinone oxidoreductase I and heme oxygenase-1 (HO-1) via NRF2 mediated activation of ARE promoters upstream from their genes—thereby allowing a diverse array of electrophilic and oxidative toxicants to be eliminated in a coordinated manner. Four-and-half dpf larvae were incubated in sulforaphane at a concentration of 10 μM for 12 hours and subsequently incubated for 4 hours in 1000 μM cisplatin (SF10/Cis 1000). An SF-alone (SF10/Cis 0) group and DMSO vehicle controls (DMSO/Cis 1000; DMSO/Cis 0) were also tested. To assess the otoprotective effects of SF on hair cell anatomy, aggregate neuromast damages were determined for each treatment group.

zebrafish [2] = test: Behavioral assay: rheotaxis in swimming test apparatus; format: in vivo, Danio rerio
Description: The custom-built behavioral apparatus consists of 6 experimental lanes with laminar flow velocity controlled at 0.15 cm/sec, allowing the simultaneous testing of up to 6 differing experimental conditions. Each lane measures 10.2 cm in height×9.9 cm in width×25.4 cm in length. Lanes are partitioned with metal mesh dividers to contain fish in one central area, measuring 5.0 cm length×9.9 cm width, allowing for image capture (FIG. 3). E2 medium flows from a header tank through the experimental lanes to a media reserve tank and is then recycled via pump back to the header tank. The pump is used to overdrive a header standpipe, resulting in constant pressure that is split evenly between the lanes, controlling the flow. A heater located in the reserve media tank maintains temperature at 28±0.5° C. Total system volume capacity (experimental apparatus+header and reserve tanks) is approximately 210 L, while operating volume is 152 L. The flow is calibrated as follows: lane width (9.9 cm)×total number of lanes (6)×operational water height (5.8 cm)×desired flow (0.15 cm/sec)=flow rate of 51.7 cubic centimeters/seconds. Water traveling from experimental lanes to the reserve media tank is received in a 1000 mL beaker and the rate of water flow is adjusted until it takes 19.3 seconds to fill the beaker to 1000 mL. Flow speed is calibrated before every experiment. With the system calibrated, flow may then be turned on or off via a separate valve, without any further adjustments.
The experimental system is housed in a cabinet creating a condition free of ambient light, thus negating any influence of visual input on zebrafish swimming behavior. Infrared light provides lighting from which images were acquired. Video capture is accomplished with under-mounted Samsung SCB-200 high-resolution video cameras (FIG. 3). In conducting the assay, five-day post fertilization (5 dpf) zebrafish are treated with several different experimental conditions (see below for detailed methods), rinsed three times in embryo medium, transferred to the experimental lanes, and the cabinet is then closed for 30 minutes to allow for dark adaptation. Image acquisition begins with 2 minutes of filming under no-flow conditions, next the water flow is turned on and the fish are allowed 1 minute to acclimate to the flow and then 2 minutes of flow behavior is recorded (FIG. 4).
Rheotaxis was defined as fish oriented headfirst, with an axial alignment within 30 degrees on either side of the directional flow vector and attempting to swim into the current. […] From the still images, the angle of every fish was measured using ImageJ and placed into an Excel spreadsheet for data processing (FIG. 6). […] Therefore, there were no negative values or angles measured between 181-360 degrees. […]

lateral line hair cells = test: Anatomical assay: YO-PRO1 staining, aggregate neuromast damage score; conditions: for Anatomical Assay Damage Score (Mean ± S.D.): score 0-21 per fish
Experimental: Following the drug exposure (see below for detailed methods), larvae were fluorescently stained/labeled in embryo medium containing 6 μM YO-PRO1 (Invitrogen; Y3603) for 20 min. YO-PRO1 is a common vital dye used for staining viable lateral line hair cells in zebrafish (Coffin A B, et al., Zebrafish. 2010 March; 7(1):3-11; Ou H C, et al., Drug Discov Today. 2010 April; 15(7-8):265-71; Ou H C, et al., Hear Res. 2007 November; 233(1-2):46-53; Santos F, et al., Hear Res. 2006 March; 213(1-2):25-33). Concentration and duration were optimized for this purpose. After labeling, the larvae were rinsed three times in embryo media and then anesthetized using 0.5 mM of MS-222 (Tricaine Methanesulfonate, Western Chemical Inc.) (Buck L M, et al., Hear Res. 2012 February; 284(1-2):67-81). The larvae were fixed in 2% paraformaldehyde for 1 hour at room temperature and stored in PBS overnight at 4° C. Fixed larvae were then mounted in 6% methylcellulose (Sigma; M7140) in 0.2 mm silicone chambers and covered with No. 1.5 cover glass (Warner Instruments; 64-0718) for confocal microscopy. Larvae were observed under a confocal microscope (Leica SP5) using 20× dry and 40× oil immersion lenses.
Treatment groups consisted of 3-7 fish. Seven ventral neuromasts of the posterior lateral line (P3, P4, P5, P6, P7, P8, and P9) were selected for determination of the “neuromast damage score” per fish (FIG. 1). Each neuromast was scored from 0 to 3. A score of 0 represents no damage with normal staining; 1 represents mild damage with moderate staining; 2 represents severe damage with poor staining; 3 represents total hair cell/neuromast destruction with no staining (FIG. 2). Seven scores per fish were then added to generate the total “aggregate neuromast damage score.” The lowest possible score for an individual fish is 0, representing no damage, with the highest possible score for a fish being 21, representing complete damage. Separate individuals (scorer A, B and C) were trained in the counting technique and “neuromast damage scores” were generated independently with blinding of experimental conditions to insure unbiased assessment. The mean score of the three evaluators was used to determine the final “neuromast damage score.” Inter-scorer variation was validated by using the Pearson's correlation coefficient.
In order to establish the sensitivity of the newly developed behavior assay for detecting damage caused by varying doses of cisplatin, a cisplatin dose-dependent exposure experiment was prepared. Cisplatin solutions were prepared from powder (Sigma; P4394) in embryo medium. Five dpf larvae were incubated in cisplatin at concentrations of 0, 250, 500, 750, or 1000 μM (Cis 0, Cis 250, Cis 500, Cis 750, and Cis 1000, respectively) for 4 hours at room temperature or 28±0.5° C. then rinsed 3 times in embryo media.
In order to assess the effect of dexamethasone on cisplatin-induced ototoxicity using the behavior/anatomical assay technique, dexamethasone pre-exposure groups were prepared. Dexamethasone (Sigma; D4902) stock solution (25 mg/ml) was prepared with DMSO (Dimethyl Sulphoxide, Sigma; D2650) and diluted with embryo medium. Four-and-half dpf larvae were incubated in dexamethasone at a concentration of 5 μM for 12 hours at 28.5±0.5° C. and subsequently rinsed in embryo media. Four-and-half dpf fish were used to allow for a half-day of maturation to ensure all fish would be 5 dpf at time of behavioral/anatomical testing. […]

[3] = dexamethasone 5 μM 12 hours alone, no cisplatin
[4] = dexamethasone 5 μM pre-exposure 12 hours, then cisplatin 1000 μM 4 hours

With N.N.[Cl][Pt][Cl] [Cis, cisplatin] the rheotaxis index (zebrafish [1]; cisplatin 1000 μM, new image analysis techniques, controls >85%) was 45% and the “rheotaxis performance versus cisplatin dosage (in words)” value (zebrafish [2]; in vivo) was “clear linear correlation was found between increasing cisplatin dosage and decreased rheotaxis performance”.
C[S+]([O-])CCCCN=C=S (centres unmarked) [sulforaphane] was tested, and the “effect of pre-exposure on rheotaxis after cisplatin (in words)” value (zebrafish [1]; SF10/Cis 1000) was “dramatically improved the ability of fish to perform rheotaxis”, the “hair cell damage caused by sulforaphane alone (in words)” value (lateral line hair cells; SF10/Cis 0: 10 μM, 12 hours) was “caused no hair cell damage” and the “rescue of hair cell architecture against cisplatin (in words)” value (lateral line hair cells; SF10/Cis 1000: 10 μM 12 hours, then 1000 μM cisplatin 4 hours) was “partial rescue of hair cell architecture”.
In the case of C[C@@H]1C[C@H]2[C@@H]3CCC4=CC(=O)C=C[C@]4(C)[C@@]3(F)[C@@H](O)C[C@]2(C)[C@@]1(O)C(=O)CO [Dex, dexamethasone], the “hair cell damage caused by dexamethasone alone (in words)” value (lateral line hair cells; Dex 5/Cis 0) is reported as “no hair cell damage; also recorded: no statistically significant difference between Cis 0 and Dex 5/Cis 0”, the “Anatomical Assay Damage Score (Mean ± S.D.)” value (lateral line hair cells; [3]) is reported as 2.40 ± 0.64 and the “Anatomical Assay Damage Score (Mean ± S.D.)” value (lateral line hair cells; [4]) is reported as 5.20 ± 1.53. For the same molecule, the “damage by dexamethasone-alone treatment, rheotaxis (in words)” value (zebrafish [2]; Dex 5/Cis 0) was “No damage was induced”, the “Behavioral Assay Rheotaxia Index (%) (Mean ± S.D.)” value (zebrafish [2]; [3]) was 35.6 ± 12.5% and the “Behavioral Assay Rheotaxia Index (%) (Mean ± S.D.)” value (zebrafish [2]; [4]) was 25.5 ± 5.2%.

Reference: patent publication US20170281799A1, “SYSTEMS AND METHODS FOR SCREENING OTOTOXIC, OTOPROTECTIVE, AND OTOREGENERATIVE COMPOUNDS USING AQUATIC MODELS” (ARIZONA BOARD OF REGENTS ON BEHALF OF THE UNIVERSITY OF …, priority 2014, published 2017)
